Test results published in patent US20250250284A1, “MACROCYCLE COMPOUNDS USEFUL AS KRAS INHIBITORS” (Hoffmann-La Roche Inc., priority 2022, published 2025).

Legend:
[1] = tested on: phosphorylation of ERK, KRAS G12V in SW620; assay: pERK inhibition assay, KRAS G12V; type: cell-based; conditions: Homo sapiens, SW-620; SW620 cells, 4 hours of incubation
Description: (§1) This assay is to measure the ability of test compounds in inhibiting the phosphorylation of ERK, the downstream signaling of KRAS G12C in NCI-H358 cells, KRAS G12D in AGS cells, and KRAS G12V in SW620. NCI-H358 (ATCC-CRL5807) cells, AGS (ATCC-CRL-1739) cells, SW620 (ATCC-CCL-227) cells were all grown and maintained using RPMI-1640 medium (Thermo Fisher Scientific) with 10% fetal bovine serum and 1% penicillin/streptomycin. On the day prior to compound addition, cells were plated in tissue culture-treated 96 well plates (Corning-3699) at a density of 30,000 cell/well, 20,000 cell/well, 30,000 cell/well for NCI-H358, AGS and SW620 respectively, and allowed for attachment overnight. Diluted compounds were then added in a final concentration of 0.5% DMSO. After 4 hours of incubation, the medium was removed, 100 μL of 4% formaldehyde was added, and the assay plates were incubated at room temperature for 20 minutes. The plates were then washed once with phosphate buffered saline (PBS), and permeabilized with 100 μL of chilled methanol for 10 minutes. Non-specific antibody binding to the plates was blocked using 50 μL 1×BSA blocking buffer (Thermo-37520, 10-fold dilution by Phosphate-Buffered Saline Tween (PBST) for at least 1 hour at room temperature.
(§2) The amount of phosphor-ERK was determined using an antibody specific for phosphorylated form of ERK. Primary antibody (pERK, CST-4370, Cell Signaling Technology) was diluted 1:300 in blocking buffer, with 50 μL aliquoted to each well, and incubated overnight at 4° C. Cells was washed five times for 5 minutes with PBST. Secondary antibody (HRP-linked anti-rabbit IgG, CST-7074, Cell Signaling Technology) was diluted 1:1000 in blocking buffer, and 50 μL was added to each well and incubated 1-2 hrs at room temperature. Cells was washed 5 times for 5 minutes with PBST, 100 μL TMB ELISA substrate (abcam-ab171523) were added and gently shake for 20 minutes. 50 μL stop solution (abcam-ab171529) were added, and then read the signal (OD450) by EnVision.
(§3) IC50 was determined by fitting a 4-parameter sigmoidal concentration response model.

[2] = target: KRAS G12V binding to BRAF (Homo sapiens (Human), UniProt P01116+P62937, G12V); assay: KRAS-BRAF with CYPA (500 nM) interaction assay (TR-FRET), G12V; conditions: GMPPNP loaded 6His-KRAS, GST-BRAF RBD, 3 hours
Chain of KRAS G12V binding to BRAF (P01116-2 other isoform, or with tags, fused parts or gaps G12V): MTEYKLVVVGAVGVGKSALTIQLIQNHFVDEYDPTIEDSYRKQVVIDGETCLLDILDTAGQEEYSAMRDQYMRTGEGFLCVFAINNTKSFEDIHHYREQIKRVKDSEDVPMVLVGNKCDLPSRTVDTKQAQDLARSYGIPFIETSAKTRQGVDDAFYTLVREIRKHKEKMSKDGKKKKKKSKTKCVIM
Chain of KRAS G12V binding to BRAF (P62937 whole entry): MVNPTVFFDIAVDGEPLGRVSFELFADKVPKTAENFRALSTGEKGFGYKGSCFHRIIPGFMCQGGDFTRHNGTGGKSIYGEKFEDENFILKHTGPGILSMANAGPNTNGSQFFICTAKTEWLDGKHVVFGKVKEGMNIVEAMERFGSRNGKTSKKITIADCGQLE
Description: (§4) KRAS-BRAF with CYPA (500 nM) Interaction Assay
(§5) In this example, TR-FRET was also used to measure the compound or compound-CYPA dependent disruption of the KRAS G12C-BRAF complex. This protocol was also used to measure disruption of KRAS G12D or KRAS G12V binding to BRAF by a compound of the invention, respectively. In assay buffer containing 25 mM HEPES PH=7.4 (4-(2-hydroxyethyl)-1-piperazineethanesulfonic acid, Thermo, 15630080), 0.002% Tween20, 0.1% BSA, 100 mM NaCl, 5 mM MgCl2, 10 μM GMPPNP (Guanosine 5′-[β,γ-imido]triphosphate trisodium salt hydrate, Sigma, G0635), tagless CYPA, GMPPNP loaded 6His-KRAS proteins, and GST-BRAF^RBD were mixed in a well of a 384-well assay plate at final concentrations of 50 nM, 6.25 nM and 1 nM, respectively. Compound was present in plate wells as a 16-point 3-fold dilution series starting at a final concentration of 10 μM and incubated for 3 hours. A mixture of MAb Anti-6His-XL665 (Cisbio, 61HISXLB) and Mab anti-GST-TB cryptate (Cisbio, 61GSTTLB) was then added at a final concentration of 6.67 nM and 0.21 nM, respectively, and the plate was incubated for an additional 1.5 hours. TR-FRET signal was read on a PHERstar FSX microplate reader (Ex320 nm, Em 665/615 nm). Compounds that facilitate disruption of the KRAS-BRAF complex were identified as those eliciting a decrease in the TR-FRET ratio relative to DMSO control wells.

[3] = tested on: phosphorylation of ERK, KRAS G12D in AGS cells; assay: pERK inhibition assay, KRAS G12D; type: cell-based; conditions: Homo sapiens, 4 hours of incubation
Description: as §1, §2, §3

NCI-H358 cells = assay: Cell viability assay (Cell Counting Kit-8), KRAS G12C; type: cell-based; conditions: Homo sapiens, 72 hrs incubation, CCK-8
Description: (§6) The purpose of this cellular assay was to determine the effects of test compounds on the proliferation of human cancer cell lines NCI-H358 (ATCC-CRL5807) cells, AGS (ATCC-CRL-1739) cells, SW620 (ATCC-CCL-227) over a 3-day treatment period by quantifying the amount of NADPH present at endpoint using Cell Counting Kit-8.
(§7) Cells were seeded at 5,000 cells/well (NCI-H358), 2,000 cells/well (AGS) 2,000 cells/well (SW620) in 96-well assay plates (Corning-3699) and incubated overnight. On the day of the assay, diluted compounds were then added in a final concentration of 0.5% DMSO. After 72 hrs incubation, a tenth of the volume of cell counting kit 8 (Dnjindo-CK04) was added into each well. Read the signal (OD450 minus OD650) using EnVision after 2 hrs incubation. IC50 was determined by fitting a 4-parameter sigmoidal concentration response model.

[4] = target: KRAS G12D binding to BRAF (Homo sapiens (Human), UniProt P01116+P62937, G12D); assay: KRAS-BRAF with CYPA (500 nM) interaction assay (TR-FRET), G12D; conditions: GMPPNP loaded 6His-KRAS, GST-BRAF RBD, 3 hours
Chain of KRAS G12D binding to BRAF (P01116-2 other isoform, or with tags, fused parts or gaps G12D): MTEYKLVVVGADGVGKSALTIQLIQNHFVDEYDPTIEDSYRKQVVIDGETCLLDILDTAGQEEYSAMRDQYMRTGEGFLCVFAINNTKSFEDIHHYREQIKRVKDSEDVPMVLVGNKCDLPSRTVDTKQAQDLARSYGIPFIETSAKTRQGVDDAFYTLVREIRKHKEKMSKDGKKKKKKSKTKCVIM
Chain of KRAS G12D binding to BRAF (P62937 whole entry): as the sequence (P62937 whole entry) above
Description: as §4, §5

[5] = tested on: phosphorylation of ERK, KRAS G12C in NCI-H358 cells; assay: pERK inhibition assay, KRAS G12C; type: cell-based; conditions: Homo sapiens, 4 hours of incubation
Description: as §1, §2, §3

AGS cells = assay: Cell viability assay (Cell Counting Kit-8), KRAS G12D; type: cell-based; conditions: Homo sapiens, 72 hrs incubation, CCK-8
Description: as §6, §7

SW620 cells = assay: Cell viability assay (Cell Counting Kit-8), KRAS G12V; type: cell-based; conditions: Homo sapiens, SW-620, 72 hrs incubation, CCK-8
Description: as §6, §7

KRAS G12C-BRAF complex = KRAS G12C-BRAF complex (Homo sapiens (Human), UniProt P01116+P62937, G12C); assay: KRAS-BRAF with CYPA (500 nM) interaction assay (TR-FRET), G12C; type: binding; conditions: GMPPNP loaded 6His-KRAS, GST-BRAF RBD, 3 hours
Chain of KRAS G12C-BRAF complex (P01116-2 other isoform, or with tags, fused parts or gaps G12C): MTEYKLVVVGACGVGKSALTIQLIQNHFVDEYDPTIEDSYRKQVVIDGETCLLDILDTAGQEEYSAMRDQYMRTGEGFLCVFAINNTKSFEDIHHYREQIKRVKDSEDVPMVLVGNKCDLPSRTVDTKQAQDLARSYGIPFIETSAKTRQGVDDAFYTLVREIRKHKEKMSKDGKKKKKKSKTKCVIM
Chain of KRAS G12C-BRAF complex (P62937 whole entry): as the sequence (P62937 whole entry) above
Description: as §4, §5

SMILES | IC50 [1] [µM] | IC50 [2] [µM] | IC50 [3] [µM] | IC50 (NCI-H358 cells) [µM] | IC50 [4] [µM] | IC50 [5] [µM] | IC50 (AGS cells) [µM] | IC50 (SW620 cells) [µM] | IC50 (KRAS G12C-BRAF complex) [µM]
CCn1c(-c2cc(N3CCN(C)CC3)cnc2[C@H](C)OC)c2c3cc(c(F)cc31)-c1csc(n1)C[C@H](NC(=O)[C@H]1C[C@@H]1C)C(=O)N1CCC[C@H](N1)C(=O)OCC(C)(C)C2 (atropisomer, axis not shown; (M)) [Example 1, (1S,2S)—N-[(7S,13S)-21-ethyl-24-fluoro-(20M)-20-[2-[(1S)-1-methoxyethyl]-5-(4-methylpiperazin-1-yl)-3-pyridyl]-17,17-dimethyl-8,14-dioxo-15-oxa-4-thia-9,21,27,28-tetrazapentacyclo[17.5.2.1^2,5.1^9,13.0^22,26]octacosa-1(25),2,5(28),19,22(26),23-hexaen-7-yl]-2-methyl-cyclopropanecarboxamide] | 0.004 | 0.211 | 0.034 | 0.018 | 0.915 | 0.011 | 4.63 | 0.009 | 0.108
CCn1c(-c2cc(N3CCN(C)CC3)cnc2[C@H](C)OC)c2c3cc(c(F)cc31)-c1csc(n1)C[C@H](NC(=O)[C@H]1[C@@H]3COC[C@@H]31)C(=O)N1CCC[C@H](N1)C(=O)OCC(C)(C)C2 (atropisomer, axis not shown; (M)) [Example 2, (1R,5S)—N-[(7S,13S)-21-ethyl-24-fluoro-(20M)-20-[2-[(1S)-1-methoxyethyl]-5-(4-methylpiperazin-1-yl)-3-pyridyl]-17,17-dimethyl-8,14-dioxo-15-oxa-4-thia-9,21,27,28-tetrazapentacyclo[17.5.2.1^2,5.1^9,13.0^22,26]octacosa-1(25),2,5(28),19,22(26),23-hexaen-7-yl]-3-oxabicyclo[3.1.0]hexane-6-carboxamide] | 0.003 | 0.174 | 0.018 | 0.011 | 0.957 | 0.009 | 0.059 | 0.005 | 0.134
CCn1c(-c2cc(N3CCOCC3)cnc2[C@H](C)OC)c2c3cc(c(F)cc31)-c1csc(n1)C[C@H](NC(=O)[C@H]1C[C@@H]1C(F)F)C(=O)N1CCC[C@H](N1)C(=O)OCC(C)(C)C2 (atropisomer, axis not shown; (M)) [Example 11, (1S,2S)-2-(difluoromethyl)-N-[(7S,13S)-21-ethyl-24-fluoro-(20M)-20-[2-[(1S)-1-methoxyethyl]-5-morpholino-3-pyridyl]-17,17-dimethyl-8,14-dioxo-15-oxa-4-thia-9,21,27,28-tetrazapentacyclo[17.5.2.1^2,5.1^9,13.0^22,26]octacosa-1(25),2,5(28),19,22(26),23-hexaen-7-yl]cyclopropanecarboxamide] | 0.007 |  | 0.028 | 0.005 |  | 0.021 | 0.111 | 0.007 | 
CO[C@@H](C)c1ncc(N2CCOCC2)cc1-c1c2c3cc(c(F)cc3n1CC(F)(F)F)-c1csc(n1)C[C@H](NC(=O)[C@H]1C[C@@H]1C)C(=O)N1CCC[C@H](N1)C(=O)OCC(C)(C)C2 (atropisomer, axis not shown; (M)) [Example 12, (1S,2S)—N-[(7S,13S)-24-fluoro-(20M)-20-[2-[(1S)-1-methoxyethyl]-5-morpholino-3-pyridyl]-17,17-dimethyl-8,14-dioxo-21-(2,2,2-trifluoroethyl)-15-oxa-4-thia-9,21,27,28-tetrazapentacyclo[17.5.2.1^2,5.1^9,13.0^22,26]octacosa-1(25),2,5(28),19,22(26),23-hexaen-7-yl]-2-methyl-cyclopropanecarboxamide] | 0.009 |  | 0.053 | 0.011 |  | 0.033 | 0.244 | 0.016 | 
CCn1c(-c2cc(N3CCN(C)CC3)cnc2[C@H](C)OC)c2c3cc(c(F)cc31)-c1csc(n1)C[C@H](NC(=O)[C@H]1C[C@@H]1C#N)C(=O)N1CCC[C@H](N1)C(=O)OCC(C)(C)C2 [Example 5, (1S,2S)-2-cyano-N-[(7S,13S)-21-ethyl-24-fluoro-(20M)-20-[2-[(1S)-1-methoxyethyl]-5-(4-methylpiperazin-1-yl)-3-pyridyl]-17,17-dimethyl-8,14-dioxo-15-oxa-4-thia-9,21,27,28-tetrazapentacyclo[17.5.2.1^2,5.1^9,13.0^22,26]octacosa-1(25),2,5(28),19,22(26),23-hexaen-7-yl]cyclopropanecarboxamide] | 0.013 |  | 0.056 | 0.023 |  | 0.057 | 0.089 | 0.012 | 
CCn1c(-c2cc(N3CCN(C)CC3)cnc2[C@H](C)OC)c2c3cc(c(F)cc31)-c1csc(n1)C[C@H](NC(=O)[C@@H]1C[C@H]1C#N)C(=O)N1CCC[C@H](N1)C(=O)OCC(C)(C)C2 [Example 6, (1R,2R)-2-cyano-N-[(7S,13S)-21-ethyl-24-fluoro-(20M)-20-[2-[(1S)-1-methoxyethyl]-5-(4-methylpiperazin-1-yl)-3-pyridyl]-17,17-dimethyl-8,14-dioxo-15-oxa-4-thia-9,21,27,28-tetrazapentacyclo[17.5.2.1^2,5.1^9,13.0^22,26]octacosa-1(25),2,5(28),19,22(26),23-hexaen-7-yl]cyclopropanecarboxamide] | 0.025 |  | 0.116 | 0.079 |  | 0.079 | 0.316 | 0.035 | 
